Results published in patent US20220184093A1, “ANTI-VIRAL ACTIVITY OF VPS34 INHIBITORS” (priority 2020, published 2022).

Tests used:
[1] = system: coronavirus USA_WA1/2020 SARS CoV-2; assay: SARS CoV-2 CPE assay for antiviral activity (Vero E6 host cells, Cell Titer-Glo); type: cell-based; conditions: Vero C1008, 10-point dose response, high concentration 15 μM, 72 hours, read-out: IC50 for inhibition of SARS CoV-2 mediated cell killing
SARS-CoV-2 = assay: microbe, parasite or virus in culture; type: cell-based; conditions: Severe acute respiratory syndrome coronavirus 2, A549, 48 h; read-out: IC50 for inhibition of SARS CoV-2 mediated cell killing
in vitro [2] = conditions: African green monkey
in vitro [3] = conditions: human

SMILES | IC50 [1] [µM] | IC50 (SARS-CoV-2) [µM] | CC50 (in vitro [2]) [µM] | CC50 (in vitro [3]) [µM]
C[C@@H]1COCCN1c1cc(N2CCN(S(=O)(=O)N3CCCC3)CC2C(F)(F)F)[nH]c(=O)c1 (stereo partly shown) [Compound 1] | 0.9 | 0.16 | 29 | 24
C[C@@H]1COCCN1c1cc(N2CCN(S(=O)(=O)c3cncc(F)c3)CC2C(F)(F)F)[nH]c(=O)c1 (stereo partly shown) [Compound 2] | 0.409 | 0.12 | > 10 | > 10
C[C@@H]1COCCN1c1cc(N2CCN(S(=O)(=O)Cc3ccc(F)cc3)CC2C(F)(F)F)[nH]c(=O)c1 (stereo partly shown) [Compound 3] | 0.224 | 0.039 | > 10 | 5160
C[C@@H]1COCCN1c1cc(N2CCN(S(=O)(=O)N(C)C)CC2C(F)(F)F)[nH]c(=O)c1 (stereo partly shown) [Compound 4] | 1.12 | 0.369 | > 10 | > 10
